Measured values: patent US6548494B1, “Tricyclic inhibitors of poly(ADP-ribose) polymerases” (Agouron Pharmaceuticals, Inc., priority 1999, dated 2003)
Several values for one entry are separate records, joined by “and”; a condition that tells them apart may be missing. Identical values can stand only once. Blank lines part the entries; values can stand above or below the compound they belong to.

Key:
purified PARP protein = purified PARP protein (Homo sapiens, UniProt P09874); test: PARP enzyme inhibition assay; type: biochemical; settings: 20 nM purified PARP (5 nM for tight-binding inhibitors), 500 μM NAD+, 25° C.; several values in one cell = repeat determinations; read-out: Inhibition Constant Ki
Sequence of purified PARP protein (P09874 whole entry): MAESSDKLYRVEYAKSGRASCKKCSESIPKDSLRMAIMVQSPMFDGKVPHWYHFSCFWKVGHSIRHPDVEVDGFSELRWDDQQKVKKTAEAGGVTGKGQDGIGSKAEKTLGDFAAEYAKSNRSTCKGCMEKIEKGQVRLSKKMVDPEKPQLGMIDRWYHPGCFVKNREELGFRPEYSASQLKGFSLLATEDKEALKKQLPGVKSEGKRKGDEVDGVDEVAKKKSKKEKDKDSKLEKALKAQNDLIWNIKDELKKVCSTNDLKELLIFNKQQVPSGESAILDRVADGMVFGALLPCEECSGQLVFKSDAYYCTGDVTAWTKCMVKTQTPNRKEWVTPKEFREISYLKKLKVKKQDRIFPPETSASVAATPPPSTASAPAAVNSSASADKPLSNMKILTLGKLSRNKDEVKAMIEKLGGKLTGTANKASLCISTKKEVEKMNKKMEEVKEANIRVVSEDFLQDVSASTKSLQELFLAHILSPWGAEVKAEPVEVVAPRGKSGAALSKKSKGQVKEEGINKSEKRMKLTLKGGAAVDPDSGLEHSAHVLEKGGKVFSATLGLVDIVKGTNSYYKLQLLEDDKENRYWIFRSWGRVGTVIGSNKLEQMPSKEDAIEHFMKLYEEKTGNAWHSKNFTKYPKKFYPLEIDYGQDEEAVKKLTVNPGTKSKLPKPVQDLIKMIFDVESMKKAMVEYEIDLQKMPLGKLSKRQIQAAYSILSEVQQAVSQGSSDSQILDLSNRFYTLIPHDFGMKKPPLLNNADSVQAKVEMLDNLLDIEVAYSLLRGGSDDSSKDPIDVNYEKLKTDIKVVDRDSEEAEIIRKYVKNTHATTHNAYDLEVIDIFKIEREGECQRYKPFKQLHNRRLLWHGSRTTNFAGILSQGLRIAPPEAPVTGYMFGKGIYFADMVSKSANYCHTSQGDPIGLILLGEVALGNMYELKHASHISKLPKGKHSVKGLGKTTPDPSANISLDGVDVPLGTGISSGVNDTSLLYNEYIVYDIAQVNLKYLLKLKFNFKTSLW

A549 cells = test: Cytotoxicity potentiation assay; type: cell-based; settings: test compound 0.4 μM, ratio of IC50 of topotecan alone to IC50 of topotecan with test compound
Experimental: A549 cells (ATCC, Rockville, Md.) were seeded into 96-well cell culture plates (Falcon brand, Fisher Scientific, Pittsburgh, Pa.) 16 to 24 hours before experimental manipulation. Cells were then treated with a test compound (or a combination of test compounds where indicated) each at a concentration of 0.4 μM for either 3 days or 5 days. At the end of treatments, relative cell number was determined either by MTT assay or SRB assay. For the MTT assay, 0.2 μg/μl of MTT (3-(4,5-dimethylthiazol-2-yl)-2,5-diphenyltetrazolium bromide) (Sigma Chemical Co., St. Louis, Mo.) was added to each well of a plate, and the plate was incubated in a cell-culture incubator for 4 hours. Metabolized MTT in each well was solubilized in 150 μl of DMSO (Sigma Chemical Co.) with shaking and quantified with a Wallac 1420 Victor plate reader (EG&G Wallac, Gaithersburg, Md.) at 540 nm. For the SRB assay, cells were fixed with 10% trichloroacetic acid (Sigma Chemical Co) for an hour at 4° C. After extensively washing, fixed cells were stained for 30 minutes with 0.4% sulforhodamine B (SRB, Sigma Chemical Co.) in 1% acetic acid (Sigma Chemical Co). Unbound SRB was washed away with 1% acetic acid. Then the cultures were air-dried, and dye was solubilized with 10 mM unbuffered Tris base (Sigma Chemical Co) with shaking. The bound dye was measured photometrically with the Wallac Victor plate reader at 515 nm. The ratio of the OD (optical density) value of a compound-treated culture to the OD value of a mock-treated culture, expressed in percentage, was used to quantify the cytotoxicity of a compound. […] To quantify the potentiation of the cytotoxicity of topotecan or temozolomide by test compounds, a dimensionless parameter PF50 is used and is defined as the ratio of the IC50 of topotecan or temozolomide alone to the IC50 of topotecan or temozolomide in combination with a test compound. For the compounds of the invention, PF50 values were determined by testing with topotecan.

Ki (purified PARP protein): 10.9 nM and 12 nM | melting point: 269 °C (dec.)
Structure (SMILES): O=C1NCCn2c(-c3ccncc3)nc3cccc1c32 [Example 3, 1-Pyridin-4-yl-8,9-dihydro-7H-2,7,9a-triaza-benzo[cd]azulen-6-one]
Cytotoxicity Potentiation PF50 (A549 cells): 1.4

Ki (purified PARP protein): 4.3 nM | melting point: 216 to 219 °C
Structure (SMILES): O=C1NCCn2c(-c3cccc(Oc4ccccc4)c3)nc3cccc1c32 [Example 6, 1-(3-Phenoxy-phenyl)-8,9-dihydro-7H-2,7,9a-triaza-benzo[cd]azulen-6-one]
Cytotoxicity Potentiation PF50 (A549 cells): 2

Ki (purified PARP protein): 11.2 nM | melting point: 250 to 252 °C
Structure (SMILES): O=C1NCCn2c(-c3cccc(C(F)(F)F)c3)nc3cccc1c32 [Example 10, 1-(3-Trifluoromethyl-phenyl)-8,9-dihydro-7H-2,7,9a-triaza-benzo[cd]azulen-6-one]
Cytotoxicity Potentiation PF50 (A549 cells): 1.7

Ki (purified PARP protein): 21 nM and 17 nM | melting point: 249 to 250 °C
Structure (SMILES): O=C1NCCn2c(-c3ccccn3)nc3cccc1c32 [Example 12, 1-Pyridin-2-yl-8,9-dihydro-7H-2,7,9a-triaza-benzo[cd]azulen-6-one]
Cytotoxicity Potentiation PF50 (A549 cells): 1.3

Ki (purified PARP protein): 5.7 nM and 7.6 nM | melting point: 272 to 274 °C
Structure (SMILES): O=C1NCCn2c(-c3ccc(Cl)cc3)nc3cccc1c32 [Example 14, 1-(4-Chloro-phenyl)-8,9-dihydro-7H-2,7,9a-triaza-benzo[cd]azulen-6-one]
Cytotoxicity Potentiation PF50 (A549 cells): 1.8

Ki (purified PARP protein): 4.8 nM and 5.3 nM | melting point: 245 to 247 °C
Structure (SMILES): O=C1NCCn2c(-c3cccc(Oc4ccncc4)c3)nc3cccc1c32 [Example 17, 1-[3-(Pyridin-4-yloxy)-phenyl]-8,9-dihydro-7H-2,7,9a-triaza-benzo[cd]azulen-6-one]
Cytotoxicity Potentiation PF50 (A549 cells): 1.7

Ki (purified PARP protein): 3.4 nM | melting point: 284 to 287 °C
Structure (SMILES): O=C1NCCn2c(-c3ccc(F)cc3)nc3cc(F)cc1c32 [Example 18, 4-Fluoro-1-(4-fluoro-phenyl)-8,9-dihydro-7H-2,7,9a-triaza-benzo[cd]azulen-6-one]
Cytotoxicity Potentiation PF50 (A549 cells): 2

Ki (purified PARP protein): 6.3 nM | melting point: 192 to 194 °C (dec.)
Structure (SMILES): CN(C)Cc1cccc(-c2nc3cccc4c3n2CCNC4=O)c1 [Example 32, 1-(3-Dimethylaminomethyl-phenyl)-8,9-dihydro-7H-2,7,9a-triaza-benzo[cd]azulen-6-one]
Cytotoxicity Potentiation PF50 (A549 cells): 1.8

Ki (purified PARP protein): 4.6 nM
Structure (SMILES): CCN(CCc1ccccn1)Cc1ccc(-c2nc3cccc4c3n2CCNC4=O)cc1 [Example 203, 1-(4-{[Ethyl-(2-pyridin-2-yl-ethyl)-amino]-methyl}-phenyl)-8,9-dihydro-7H-2,7,9a-triaza-benzo[cd]azulen-6-one]
Cytotoxicity Potentiation PF50 (A549 cells): 2.0

Ki (purified PARP protein): 4.2 nM
Structure (SMILES): CN(CCc1cc2ccccc2[nH]1)Cc1ccc(-c2nc3cccc4c3n2CCNC4=O)cc1 [Example 207, 1-[4-({[2-(1H-Indol-2-yl)-ethyl]-methyl-amino}-methyl)-phenyl]-8,9-dihydro-7H-2,7,9a-triaza-benzo[cd]azulen-6-one]
Cytotoxicity Potentiation PF50 (A549 cells): 2.4

Ki (purified PARP protein): 4.5 nM
Structure (SMILES): O=C1NCCn2c(-c3ccc(CN4CCCC4)cc3)nc3cc(F)cc1c32 [Example 211, 4-Fluoro-1-(4-pyrrolidin-1-ylmethyl-phenyl)-8,9-dihydro-7H-2,7,9a-triaza-benzo[cd]azulen-6-one]
Cytotoxicity Potentiation PF50 (A549 cells): 2.3

Ki (purified PARP protein): 8.5 nM
Structure (SMILES): C[C@H]1Cn2c(-c3ccc(CN4CC=CC4)cc3)nc3cccc(c32)C(=O)N1 [Example 223, (S)-1-[4-(2,5-Dihydro-pyrrol-1-ylmethyl)-phenyl]-8-methyl-8,9-dihydro-7H-2,7,9a-triaza-benzo[cd]azulen-6-one]
Cytotoxicity Potentiation PF50 (A549 cells): 2.1

Ki (purified PARP protein): 8 nM
Structure (SMILES): C[C@H]1Cn2c(-c3ccc(CN4CCCC4)cc3)nc3cccc(c32)C(=O)N1 [Example 233, (S)-8-Methyl-1-(4-pyrrolidin-1-ylmethyl-phenyl)-8,9-dihydro-7H-2,7,9a-triaza-benzo[cd]azulen-6-one]
Cytotoxicity Potentiation PF50 (A549 cells): 2.2

Ki (purified PARP protein): 5.8 nM
Structure (SMILES): CC(c1ccc(-c2nc3cccc4c3n2CCNC4=O)cc1)N(C)C (centres unmarked) [Example 245, 1-[4-(1-Dimethylamino-ethyl)-phenyl]-8,9-dihydro-7H-2,7,9a-triaza-benzo[cd]azulen-6-one]
Cytotoxicity Potentiation PF50 (A549 cells): 2.1

Continued, compound first:

Structure (SMILES): O=C1NCCn2c(-c3ccc(F)c(F)c3)nc3cccc1c32 [Example 4, 1-(3,4-Difluoro-phenyl)-8,9-dihydro-7H-2,7,9a-triaza-benzo[cd]azulen-6-one]
Ki (purified PARP protein): 6.5 nM | Cytotoxicity Potentiation PF50 (A549 cells): 1.5 | melting point: 245 to 247 °C

Structure (SMILES): O=C1NCCn2c(-c3ccccc3Cl)nc3cccc1c32 [Example 5, 1-(2-Chloro-phenyl)-8,9-dihydro-7H-2,7,9a-triaza-benzo[cd]azulen-6-one]
Ki (purified PARP protein): 7.7 nM | Cytotoxicity Potentiation PF50 (A549 cells): 1.3 | melting point: 253 to 255 °C

Structure (SMILES): O=C1NCCn2c(-c3cccs3)nc3cccc1c32 [Example 8, 1-Thiophen-2-yl-8,9-dihydro-7H-2,7,9a-triaza-benzo[cd]azulen-6-one]
Ki (purified PARP protein): 6.2 nM | Cytotoxicity Potentiation PF50 (A549 cells): 1.9 | melting point: 247 to 250 °C

Structure (SMILES): S=C1NCCn2c(-c3ccccc3)nc3cccc1c32 [Example 25, 1-Phenyl-8,9-dihydro-7H-2,7,9a-triaza-benzo[cd]azulen-6-thione]
Cytotoxicity Potentiation PF50 (A549 cells): 1.4 | melting point: 224 °C (dec.)

Structure (SMILES): O=C1NCCn2c(-c3ccc(Cl)cc3)cc3cccc1c32 [Example 34, 6-(4-Chlorophenyl)-3,4-dihydro-2H-[1,4]diazepino[6,7,1-hi]indol-1-one]
Ki (purified PARP protein): 11 nM | Cytotoxicity Potentiation PF50 (A549 cells): 1.8 | melting point: 178 to 180 °C

Structure (SMILES): CNCc1cccc(-c2nc3cccc4c3n2CCNC4=O)c1 [Example 59, 1-(3-Methylaminomethyl-phenyl)-8,9-dihydro-7H-2,7,9a-triaza-benzo[cd]azulen-6-one]
Ki (purified PARP protein): 4.2 nM | Cytotoxicity Potentiation PF50 (A549 cells): 1.8 | melting point: 110 °C (dec.)

Structure (SMILES): CNCc1ccc(-c2nc3cccc4c3n2CCNC4=O)cc1 [Example 75, 1-(4-Methylaminomethyl-phenyl)-8,9-dihydro-7H-2,7,9a-triaza-benzo[cd]azulen-6-one]
Ki (purified PARP protein): 1.9 nM | Cytotoxicity Potentiation PF50 (A549 cells): 1.8 | melting point: 169 to 172 °C

Structure (SMILES): O=C1NCCn2c(-c3ccc(CN4CCOCC4)cc3)nc3cccc1c32 [Example 76, 1-(4-Morpholin-4-ylmethyl-phenyl)-8,9-dihydro-7H-2,7,9a-triaza-benzo[cd]azulen-6-one]
Ki (purified PARP protein): 5.1 nM | Cytotoxicity Potentiation PF50 (A549 cells): 1.6 | melting point: 285 to 286 °C (dec.)

Structure (SMILES): O=C1NCCn2c(-c3ccc(CN4CCCC4)cc3)nc3cccc1c32 [Example 210, 1-(4-Pyrrolidin-1-ylmethyl-phenyl)-8,9-dihydro-7H-2,7,9a-triaza-benzo[cd]azulen-6-one]
Ki (purified PARP protein): 5 nM | Cytotoxicity Potentiation PF50 (A549 cells): 2.3

Structure (SMILES): CC1CCCN1Cc1ccc(-c2nc3cccc4c3n2CCNC4=O)cc1 (centres unmarked) [Example 212, 1-[4-(2-Methyl-pyrrolidin-1-ylmethyl)-phenyl]-8,9-dihydro-7H-2,7,9a-triaza-benzo[cd]azulen-6-one]
Ki (purified PARP protein): 6.8 nM | Cytotoxicity Potentiation PF50 (A549 cells): 2.0

Structure (SMILES): CC(c1ccc(-c2nc3cccc4c3n2CCNC4=O)cc1)N1CCCC1 (centres unmarked) [Example 246, 1-[4-(1-Pyrrolidin-1-yl-ethyl)-phenyl]-8,9-dihydro-7H-2,7,9a-triaza-benzo[cd]azulen-6-one]
Ki (purified PARP protein): 3.3 nM | Cytotoxicity Potentiation PF50 (A549 cells): 2.3
